This is an account of results in ChEMBL document CHEMBL5252653, “Design, Synthesis, and Bioevaluation of Dexmedetomidine Prodrug” (ACS Med Chem Lett, 2023).

For data set [1], the species on record is Rattus norvegicus. Description: Sedative activity in Sprague-Dawley rat assessed as onset time at 2 times of EC50. It counts as functional. The note with it: dose 10-110 µg/ml; route iv.
The test system of data set [2] is Rattus norvegicus. Description: Sedative activity in Sprague-Dawley rat assessed as duration time at 2 times of EC50 administered as bolus dose. It counts as functional.
A short description of data set [3]: Prodrug conversion in Sprague-Dawley rat plasma assessed as dexmedetomidine release measured at 1 hr by HPLC analysis. Format: ADME, cell-free.
Data set [4] relates to Rattus norvegicus. Description: Sedative activity in Sprague-Dawley rat at 10 to 110 microg/ml, iv administered as bolus dose by dixon analysis. Format: functional.
Data set [5] is described as follows: Prodrug conversion in Sprague-Dawley rat assessed as dexmedetomidine release at 2 times of ED50. It counts as ADME. As to conditions: in vivo.
A short description of data set [6]: Cardiotoxicity in Sprague-Dawley rat assessed as reduction in heart rate at 20 to 80 microg/ml, iv administered as bolus dose by ECG analysis. As to conditions: in vivo, dose 20-80 µg/ml. Format: toxicity, organism-based.
The nature of data set [7]: Toxicity in Sprague-Dawley rat assessed as survival rate at 2 times of EC50. As to conditions: in vivo, read-out: Activity.

The structures appear in SMILES notation.

The term ED50 denotes the midpoint of the dose-response relation. On to `CCOC(=O)CCC(=O)OCn1cnc([C@@H](C)c2cccc(C)c2C)c1.Cl`, for which the Time in the data set filed under Rattus norvegicus [1] was determined as 116 s; in the data set with Rattus norvegicus [2], 2484.1 s. The Drug metabolism result in data set [3] is “Metabolite_Detected”; in data set [5], 27.67 µg/kg. In the data set on Rattus norvegicus [4], this compound yielded a median effective dose (ED50) of 0.0273 mg/kg. For the same compound, the Activity result in data set [6] is “Toxic”. The survival in data set [7] is 100%.
Take `COC(=O)CCC(=O)OCn1cnc([C@@H](C)c2cccc(C)c2C)c1.Cl`: the Time in the data set listed under Rattus norvegicus [1] is reported as 78.9 s; with Rattus norvegicus [2], 2733.9 s. Further, the Drug metabolism entry in data set [3] was “Metabolite_Detected”; in data set [5], 31.71 µg/kg. For the same compound, it took a dose of 0.0301 mg/kg to reach the 50% effect level in the data set with Rattus norvegicus [4] (ED50). Further, the Activity entry in data set [6] is “Toxic”. The survival in data set [7] came to 100%.
